Reference: patent US6103888A, “Mammalian cationic proteins having lipopolysaccharide binding and anti-coagulant activity” (priority 1999, dated 2000)

Experiments:
[1] = system: thioglycollate-stimulated murine peritoneal macrophages; assay: LPS-induced tissue factor generation by macrophages (clotting assay); type: cell-based
Method: Tissue factor assay. Salmonella minnesota smooth LPS was incubated with each peptide (1 μg/ml) for 5 min., then the mixture was added to peritoneal murine macrophages obtained 4 days after thioglycollate stimulation. Cells were cultured for 6 hours prior to assay of tissue factor by clotting assay.
Various concentrations of Salmonella minnesota smooth LPS were incubated with each peptide (197 (RNIP), 36-1, 32-1, and 50-2) at 37° C. for 5 minutes prior to mixing with thioglycollate-stimulated murine peritoneal macrophages. Production of tissue factor after 6 hr. was measured by clotting assay. […] In the absence of LPS no tissue factor is synthesized by these cells.

E. coli O9:K39 K+ strain = assay: Antibacterial CFU assay
factor Xa = target: T1, factor Xa (Homo sapiens, UniProt P00742); assay: Direct Xa inhibition using Xa substrate S2222; type: biochemical; settings: concentrations over 10 μg/ml
T1 construct: purchased Sigma Chemical Co., St. Louis, Mo
Excerpt: Clotting method: Human plasma (Ortho plasma control, Ortho Diagnostic Co.). ATPP reagent(Organo-technika, Tokyo, Japan). Standard tissue factor, rabbit brain thromboplastin (Simplastin, ONO Pharmaceutical, Tokyo, Japan). Purified human factor VII, factor X, factor Xa (Sigma Chemical Co., St. Louis, Mo.). Russell Viper venom (RVV) and Echis Carinatus venom (ECV, Sigma Co.).
Synthetic chromogenic substrate method: Substrate for factor Xa, S2222 (Kabi, Bz-Ile-Glu-Arg-pNA) was used. Substrate for factor II (prothrombin), Boc-Val-Pro-Arg-pNA (Sigma Chemical Co.) was used.

human monocytes = assay: TNF release from LPS and IFNγ stimulated monocytes; type: cell-based
Human plasma = assay: Prothrombin time (PT); type: biochemical
Method: Prothrombin time (PT). Human plasma (100 μl) was incubated with 100 μl of each peptide at 37° C. for 3 min., then 100 μl of tissue factor (250 μg/ml) CaCl2 was added and clotting time was measured.

RAW 264.7 cells [2] = assay: Reversal of LPS-induced inhibition of cell proliferation; type: cell-based, murine; settings: cultures containing 5 ng/ml of LPS
Method: When LPS is added to RAW 264.7 cells it causes a dose-dependent inhibition of proliferation with differentiation of the cells into a macrophasge phenotype.

RAW 264.7 cells [3] = assay: LPS- or IFNγ-induced reactive nitrogen intermediate (RNI) production, Griess nitrite assay; type: cell-based, murine
Method: (§1) From the sequence of the CAP18 cDNA, it was apparent that the putative N-terminal peptide of CAP18 was in fact an internal fragment of the CAP18 protein. We therefore tried to reconfirm the original protein sequence. Neutrophil-derived heparin bound cationic proteins were prepared as described above and applied to a C18 reverse phase HPLC (FIG. 1). We sequenced the major peaks. Peaks at fractions 14.5 and 15.2 correspond to defensins MCP1 and MCP2 (Territo et al. (1989) J. Clin. Invest. 84:2017-2019), respectively. Fraction 25.8 is macrophage related protein 14 (MRP14) (Odink et al. (1987) Nature 330:80-82). The fraction at 20.3 minutes corresponds to a fragment of CAP18 of approximately 4-5 kD. […] The murine macrophage cell line RAW 264.7 (obtained from ATCC) and thioglycollate-elicited murine peritoneal exudate cells are used to produce RNI. Cells are cultured at 1×10^6 /ml. in RPMI-1640 +2.5% FCS in 24 well plates in the presence or absence of different concentrations of LPS or murine rlFNγ. After 24 hr. incubation at 37° C., the cell free supernatant is collected and tested for the presence of RNI. Accumulation of nitrite in the medium is measured by a calorimetric assay based on the Griess reaction (Green et al. (1982) Anal. Biochem. 126:11) using sodium nitrite as standards. Sample (50 μl) is mixed with 50 μl of Griess reagent (1% sulfanilamide, 0.1% naphthalene diamine dihydrochloride, 2.5% H3 PO4) and after 10 min. at room temperature absorbance is read at 570 nm.

[4] = system: Salmonella minnesota ReLPS sensitized sheep erythrocytes; assay: LPS hemagglutination assay (MAC); type: binding
Method: For hemagglutination assays, erythrocytes were sensitized with LPS as follows. One ml of 1% erythrocyte suspension (human 0 type, C3H/HeN mouse or sheep) was mixed with 0.2 ml of LPS solution and incubated at 37° C. for 30 min, followed by washing with phosphate buffered saline (PBS), and then the concentration of suspension was adjusted to 1.0%. In the case of S-LPS, the solution was heated at 100° C. for 1 hour before sensitization of erythrocytes. […] Activity of CAP was expressed as a minimum agglutinating concentration (MAC) of CAP. According to the method of Kirikae et al. (1986) Microbiol. Immunol. 30:269-274, 50 μl of 2-fold serial dilution of Re-LPS was added to 50 μl of 1.0% rabbit erythrocyte suspension, and incubated at 37° C. for 3 hour. Minimum agglutinating concentration of Re-LPS was expressed as 1 HA unit.

factor X = target: T2, factor X (Homo sapiens, UniProt P00742); assay: Factor X activation by tissue factor and factor VII, synthetic substrate S-2222; type: biochemical; settings: synthetic substrate; listed as 197
T2 construct: purchased Sigma Chemical Co., St. Louis, Mo
Method: Factor Xa activity using synthetic substrate. A reaction mixture of factor VII (1 unit/ml, 200 μl), factor X (1 unit/ml, 200 μl), tissue factor (2.5 mg/ml, 50 μl), 25 mM-CaCl2 (50 μl) and 50 μl of several concentration of peptide was incubated at 37° C. for 10 min. To 200 Al of the reaction mixture, 60 μl of 4 mM S-2222, a synthetic substrate for factor Xa, and 340 μl of Tris-HCl buffer, pH 8.2, was added and further incubated for 15 min. The reaction was stopped by adding 60 μl of 50% acetic acid, and OD for p-nitroaniline was read at 405 nm.

[5] = system: thioglycolate elicited murine peritoneal exudate cells; assay: RNI generation by thioglycolate elicited peritoneal exudate cells; type: cell-based; settings: for RNI: RNIP 50 nm
Method: as §1

T1 sequence (P00742 235-488 limits assumed): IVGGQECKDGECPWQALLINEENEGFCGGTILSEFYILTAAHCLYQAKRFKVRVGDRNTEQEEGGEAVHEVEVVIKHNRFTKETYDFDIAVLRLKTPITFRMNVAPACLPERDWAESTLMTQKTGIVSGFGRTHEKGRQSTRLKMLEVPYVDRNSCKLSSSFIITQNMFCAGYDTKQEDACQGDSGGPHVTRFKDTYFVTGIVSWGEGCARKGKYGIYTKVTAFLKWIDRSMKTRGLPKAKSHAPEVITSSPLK
T1 sequence (P00742 41-179 limits assumed): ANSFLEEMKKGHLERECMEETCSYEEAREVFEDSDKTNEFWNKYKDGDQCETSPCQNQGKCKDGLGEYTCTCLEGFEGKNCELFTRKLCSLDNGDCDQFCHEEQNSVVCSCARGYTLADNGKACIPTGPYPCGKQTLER
T2 sequence (P00742 183-488): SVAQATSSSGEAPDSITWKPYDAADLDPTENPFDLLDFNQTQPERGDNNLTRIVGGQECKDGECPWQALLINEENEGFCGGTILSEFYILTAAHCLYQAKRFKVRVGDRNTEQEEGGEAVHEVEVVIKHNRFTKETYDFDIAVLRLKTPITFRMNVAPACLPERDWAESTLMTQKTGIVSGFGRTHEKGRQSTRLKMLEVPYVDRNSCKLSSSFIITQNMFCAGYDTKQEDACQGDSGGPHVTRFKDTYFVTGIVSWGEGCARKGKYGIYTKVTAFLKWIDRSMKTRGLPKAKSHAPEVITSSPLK
T2 sequence (P00742 41-179): as the sequence (P00742 41-179 limits assumed) above

For “RNIP: rabbit reactive nitrogen inhibitory protein, amino acids 135-171 of SEQ ID NO:4; purified from granulocytes (Tables 1-3) or synthetic (#197) (GLRKRLRKFRNKIKEKLKKIGQKIQGLLPKLAPRTDY)”, which “inhibition of LPS-induced tissue factor generation, peptide added after LPS” value ([1]; added as late as 3 hours after the LPS stimulus) is on record?
Its value is “Significant inhibition”.

What about the “inhibition of LPS induced tissue factor (in words)” value ([1]; peptides 1 μg/ml incubated with S. minnesota smooth LPS 5 minutes, 6 hr) of the same substance?
The value was “inhibition”.

And the “IC50, anti-bacterial activity” value (E. coli O9:K39 K+ strain)?
The value was 0.14 µg/mL.

What about the IC50 (E. coli O9:K39 K+ strain; read-out: IC50, anti-bacterial activity) of the same substance?
The IC50 was 20 nM.

What about the “direct Xa inhibition (in words)” value (factor Xa) of the same substance?
The value was “No evidence of direct Xa inhibition”.

What about the TNF (human monocytes; Human IFNγ (100 U), CAP (1:1), stimulus alone 2.0) of the same substance?
The TNF was 0.27 ng/mL.

And the TNF (human monocytes; Human IFNγ (100 U), CAP (1:10), stimulus alone 2.0)?
The TNF was 0.35 ng/mL.

What about the TNF (human monocytes; Human IFNγ (100 U), CAP (1:100), stimulus alone 2.0) of the same substance?
The TNF was 0.35 ng/mL.

What about the TNF (human monocytes; LPS (10 ng/ml), CAP (1:1), stimulus alone 1.0) of the same substance?
The TNF was 0.12 ng/mL.

And the TNF (human monocytes; LPS (10 ng/ml), CAP (1:10), stimulus alone 1.0)?
The TNF was 0.34 ng/mL.

And the TNF (human monocytes; LPS (10 ng/ml), CAP (1:100), stimulus alone 1.0)?
The TNF was 0.23 ng/mL.

And the “inhibition of the prothrombin time (PT), in words” value (Human plasma)?
The value was “inhibited”.

What about the “effect on LPS-induced inhibition of RAW 264.7 cell proliferation” value (RAW 264.7 cells [2]) of the same substance?
Its value is “reverses the inhibition of proliferation”.

What about the “concentrations at which peptides are active in the bioassay” value (RAW 264.7 cells [3]; day-to-day variation in the bioassay) of the same substance?
Its value is 10 to 50 nM.

What about the “inhibition of LPS-induced RNI production (in words)” value (RAW 264.7 cells [3]; macrophages / RAW 264.7 cells) of the same substance?
The value was “active”.

And the “Hemagglutination [MAC], minimum agglutinating concentration” value [4]?
Its value is 7.9 µg/mL.

What about the “IC50, Tissue factor VII, X to Xa” value (factor X) of the same substance?
The value was 0.3 to 0.7 µg/mL.

What about the RNI ([5]; IFNγ 500 U/ml, without RNIP 4.0 ± 0.8) of the same substance?
The RNI was 1.1 µM.

And the IC50 ([5]; IFNγ stimulated, read-out: IC50 for inhibition of gamma interferon stimulated nitrogen radical release)?
The IC50 was less than 50 nM.

And the RNI ([5]; LPS + IFNγ 1 ng + 500 U/ml, without RNIP 26 ± 0.6)?
Its RNI is 14 ± 0.7 µM.
